Patent publication US12655116B2, “Substituted isophthalic acid diamides” (Bayer Aktiengesellschaft, priority 2020, dated 2026)

Assays:
AMARE [1] = test: Pre-emergence herbicidal action against AMARE; format: in vivo, Amaranthus retroflexus; conditions: Amaranthus retroflexus, 504 h, scored visually after 3 weeks vs untreated controls, 100% = plants have died, 0% = like control plants
How it was run: (§1)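 Visual rating at 3 weeks vs untreated pots; 0–100% scale, 100% = plants died. Treatment: aqueous WP/EC spray onto covering soil, 600–800 l/ha, 0.2% wetter, seeds in sandy loam.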

AMARE [2] = test: Post-emergence herbicidal action against AMARE; format: in vivo, Amaranthus retroflexus; conditions: Amaranthus retroflexus, 504 h, 20 g/ha, visual assessment about 3 weeks after treatment, 100% = plants have died, 0% = like control plants
How it was run: (§2)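 Weeds in sandy loam soil received a post-emergence spray at the one-leaf stage. Compounds were applied as WP or EC in water, 600 to 800 l/ha, with 0.2% wetting agent. Activity in % was judged visually after roughly 3 weeks against untreated plants.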

ALOMY [3] = test: Post-emergence herbicidal action against ALOMY; format: in vivo, Alopecurus myosuroides; conditions: Alopecurus myosuroides, 504 h, dosage 20 g/ha, visual assessment about 3 weeks after treatment vs untreated controls
How it was run: as §2

VIOTR [4] = test: Post-emergence herbicidal action against VIOTR; format: in vivo, Viola tricolor; conditions: Viola tricolor, 504 h
How it was run: as §2

MATIN [5] = test: Pre-emergence herbicidal action against MATIN; format: in vivo, Matricaria inodora; conditions: Tripleurospermum inodorum, 504 h; for pest or weed control at 20 g/ha: dosage 20 g/ha; for pest or weed control at 80 g/ha: dosage 80 g/ha
How it was run: as §1

SETVI [6] = test: Post-emergence herbicidal action against SETVI; format: in vivo, Setaria viridis; conditions: Setaria viridis, 504 h
How it was run: as §2

ABUTH [7] = test: Pre-emergence herbicidal action against ABUTH; format: in vivo, Abutilon theophrasti; conditions: Abutilon theophrasti, 504 h; for pest or weed control at 80 g/ha: scored visually after 3 weeks vs untreated controls (100% = plants have died, 0% = like control plants)
How it was run: as §1

ALOMY [8] = test: Pre-emergence herbicidal action against ALOMY; format: in vivo, Alopecurus myosuroides; conditions: Alopecurus myosuroides, 504 h, pre-emergence; for pest or weed control at 80 g/ha: scored visually after 3 weeks vs untreated controls (100% = plants have died, 0% = like control plants)
How it was run: as §1

AVEFA = test: Pre-emergence herbicidal action against AVEFA; format: in vivo, Avena fatua; conditions: Avena fatua, 504 h, pre-emergence
How it was run: as §1

MATIN [9] = test: Post-emergence herbicidal action against MATIN; format: in vivo, Matricaria inodora; conditions: Tripleurospermum inodorum, 504 h, dosage 20 g/ha
How it was run: as §2

SETVI [10] = test: Pre-emergence herbicidal action against SETVI; format: in vivo, Setaria viridis; conditions: Setaria viridis, 504 h; for pest or weed control at 20 g/ha: dosage 20 g/ha; for pest or weed control at 80 g/ha: dosage 80 g/ha
How it was run: as §1

DIGSA [11] = test: Post-emergence herbicidal action against DIGSA; format: in vivo, Digitaria sanguinalis; conditions: Digitaria sanguinalis, 504 h
How it was run: as §2

DIGSA [12] = test: Pre-emergence herbicidal action against DIGSA; format: in vivo, Digitaria sanguinalis; conditions: Digitaria sanguinalis, 504 h; for pest or weed control at 20 g/ha: dosage 20 g/ha; for pest or weed control at 80 g/ha: dosage 80 g/ha
How it was run: as §1

VERPE [13] = test: Pre-emergence herbicidal action against VERPE; format: in vivo, Veronica persica; conditions: Veronica persica, 504 h, dosage 80 g/ha
How it was run: as §1

POLCO = test: Pre-emergence herbicidal action against POLCO; format: in vivo, Polygonum convolvulus; conditions: Fallopia convolvulus, 504 h; for pest or weed control at 80 g/ha: dosage 80 g/ha
How it was run: as §1

VIOTR [14] = test: Pre-emergence herbicidal action against VIOTR; format: in vivo, Viola tricolor; conditions: Viola tricolor, 504 h; for pest or weed control at 20 g/ha: dosage 20 g/ha; for pest or weed control at 80 g/ha: dosage 80 g/ha
How it was run: as §1

ABUTH [15] = test: Post-emergence herbicidal action against ABUTH; format: in vivo, Abutilon theophrasti; conditions: Abutilon theophrasti, 504 h, dosage 20 g/ha, visual assessment about 3 weeks after treatment vs untreated controls
How it was run: as §2

ECHCG [16] = test: Post-emergence herbicidal action against ECHCG; format: in vivo, Echinochloa crus-galli; conditions: Echinochloa crus-galli, 504 h, dosage 20 g/ha
How it was run: as §2

PHBPU = test: Pre-emergence herbicidal action against PHBPU; format: in vivo, Pharbitis purpurea; conditions: Ipomoea purpurea, 504 h; for pest or weed control at 20 g/ha: dosage 20 g/ha; for pest or weed control at 80 g/ha: dosage 80 g/ha
How it was run: as §1

ECHCG [17] = test: Pre-emergence herbicidal action against ECHCG; format: in vivo, Echinochloa crus-galli; conditions: Echinochloa crus-galli, 504 h, 80 g/ha
How it was run: as §1

LOLRI = test: Pre-emergence herbicidal action against LOLRI; format: in vivo, Lolium rigidum; conditions: Lolium rigidum, 504 h, 80 g/ha
How it was run: as §1

VERPE [18] = test: Post-emergence herbicidal action against VERPE; format: in vivo, Veronica persica; conditions: Veronica persica, 504 h, 20 g/ha
How it was run: as §2

[19] = 20 g/ha, scored visually after 3 weeks, 100% = plants have died, 0% = like control plants

Question: `CCn1nnnc1NC(=O)c1ccc(I)c(C(=O)NC2CC2)c1Cl` [Example 2-197] was tested. Which pest or weed control at 20 g/ha (AMARE [1]) did it give?
Answer: 100%

Question: And the pest or weed control at 80 g/ha (AMARE [1])?
Answer: 100%

Question: What about the pest or weed control at 20 g/ha (AMARE [2]) of the same compound?
Answer: 90%

Question: And the pest or weed control at 20 g/ha (ALOMY [3])?
Answer: 90%

Question: What about the pest or weed control at 5 g/ha (VIOTR [4]) of the same compound?
Answer: 80%

Question: What about the pest or weed control at 20 g/ha (VIOTR [4]) of the same compound?
Answer: 100%

Question: And the pest or weed control at 20 g/ha (MATIN [5])?
Answer: 80%

Question: What about the pest or weed control at 80 g/ha (MATIN [5]) of the same compound?
Answer: 100%

Question: And the pest or weed control at 5 g/ha (SETVI [6]; dosage 5 g/ha)?
Answer: 80%

Question: And the pest or weed control at 20 g/ha (SETVI [6]; dosage 20 g/ha)?
Answer: 100%

Question: What about the pest or weed control at 80 g/ha (ABUTH [7]) of the same compound?
Answer: 100%

Question: What about the pest or weed control at 80 g/ha (ALOMY [8]) of the same compound?
Answer: 90%

Question: What about the pest or weed control at 80 g/ha (AVEFA) of the same compound?
Answer: 100%

Question: And the pest or weed control at 20 g/ha (AVEFA; [19])?
Answer: 80%

Question: What about the pest or weed control at 20 g/ha (MATIN [9]) of the same compound?
Answer: 80%

Question: And the pest or weed control at 20 g/ha (SETVI [10])?
Answer: 90%

Question: And the pest or weed control at 80 g/ha (SETVI [10])?
Answer: 100%

Question: And the pest or weed control at 20 g/ha (DIGSA [11])?
Answer: 90%

Question: What about the pest or weed control at 20 g/ha (DIGSA [12]) of the same compound?
Answer: 100%

Question: And the pest or weed control at 80 g/ha (DIGSA [12])?
Answer: 100%

Question: What about the pest or weed control at 80 g/ha (VERPE [13]) of the same compound?
Answer: 90%

Question: What about the pest or weed control at 80 g/ha (POLCO) of the same compound?
Answer: 100%

Question: What about the pest or weed control at 20 g/ha (VIOTR [14]) of the same compound?
Answer: 100%

Question: And the pest or weed control at 80 g/ha (VIOTR [14])?
Answer: 100%

Question: What about the pest or weed control at 20 g/ha (ABUTH [15]) of the same compound?
Answer: 80%

Question: And the pest or weed control at 20 g/ha (ECHCG [16])?
Answer: 90%

Question: And the pest or weed control at 20 g/ha (PHBPU)?
Answer: 80%

Question: And the pest or weed control at 80 g/ha (PHBPU)?
Answer: 90%

Question: What about the pest or weed control at 80 g/ha (ECHCG [17]) of the same compound?
Answer: 100%

Question: And the pest or weed control at 80 g/ha (LOLRI)?
Answer: 90%

Question: What does the source list for `CCc1c(C(=O)Nc2nnnn2CC)ccc(C(F)F)c1C(=O)NC1CC1` [Example 2-279]?
Answer: pest or weed control at 20 g/ha (AMARE [1]): 100%; pest or weed control at 80 g/ha (AMARE [1]): 100%; pest or weed control at 20 g/ha (AMARE [2]): 100%; pest or weed control at 5 g/ha (VIOTR [4]): 80%; pest or weed control at 20 g/ha (VIOTR [4]): 90%; pest or weed control at 20 g/ha (MATIN [5]): 90%; pest or weed control at 80 g/ha (MATIN [5]): 100%; pest or weed control at 80 g/ha (ABUTH [7]): 100%; pest or weed control at 20 g/ha (ABUTH [7]; dosage 20 g/ha, scored visually after 3 weeks vs untreated controls, 100% = plants have died, 0% = like control plants, read-out: Pre-emergence action against ABUTH (herbicidal activity in percent)): 80%; pest or weed control at 80 g/ha (ALOMY [8]): 90%; pest or weed control at 20 g/ha (ALOMY [8]; [19]): 80%; pest or weed control at 80 g/ha (AVEFA): 100%; pest or weed control at 20 g/ha (MATIN [9]): 80%; pest or weed control at 20 g/ha (SETVI [10]): 80%; pest or weed control at 80 g/ha (SETVI [10]): 100%; pest or weed control at 5 g/ha (DIGSA [11]; 5 g/ha): 90%; pest or weed control at 20 g/ha (DIGSA [11]): 90%; pest or weed control at 20 g/ha (DIGSA [12]): 90%; pest or weed control at 80 g/ha (DIGSA [12]): 100%; pest or weed control at 20 g/ha (VERPE [18]): 90%; pest or weed control at 80 g/ha (VERPE [13]): 90%; pest or weed control at 20 g/ha (POLCO; dosage 20 g/ha): 80%; pest or weed control at 80 g/ha (POLCO): 90%; pest or weed control at 20 g/ha (VIOTR [14]): 100%; pest or weed control at 80 g/ha (VIOTR [14]): 100%; pest or weed control at 20 g/ha (ABUTH [15]): 80%; pest or weed control at 20 g/ha (ECHCG [16]): 90%; pest or weed control at 20 g/ha (PHBPU): 80%; pest or weed control at 80 g/ha (PHBPU): 90%; pest or weed control at 80 g/ha (ECHCG [17]): 100%; pest or weed control at 80 g/ha (LOLRI): 80%
